The results in this text go back to ChEMBL document CHEMBL1126448, “Synthesis and biological activity of putative mono-hydroxylated metabolites of velnacrine” (Bioorg Med Chem Lett, 1992).

Activity calls are given as the source filed them. The calls are words filed in the database; no cut-off is given here. Some results are limits rather than exact numbers.

One data set deals with T1, Acetylcholinesterase (Rattus norvegicus, UniProt P37136).
T1 sequence (P37136 whole entry): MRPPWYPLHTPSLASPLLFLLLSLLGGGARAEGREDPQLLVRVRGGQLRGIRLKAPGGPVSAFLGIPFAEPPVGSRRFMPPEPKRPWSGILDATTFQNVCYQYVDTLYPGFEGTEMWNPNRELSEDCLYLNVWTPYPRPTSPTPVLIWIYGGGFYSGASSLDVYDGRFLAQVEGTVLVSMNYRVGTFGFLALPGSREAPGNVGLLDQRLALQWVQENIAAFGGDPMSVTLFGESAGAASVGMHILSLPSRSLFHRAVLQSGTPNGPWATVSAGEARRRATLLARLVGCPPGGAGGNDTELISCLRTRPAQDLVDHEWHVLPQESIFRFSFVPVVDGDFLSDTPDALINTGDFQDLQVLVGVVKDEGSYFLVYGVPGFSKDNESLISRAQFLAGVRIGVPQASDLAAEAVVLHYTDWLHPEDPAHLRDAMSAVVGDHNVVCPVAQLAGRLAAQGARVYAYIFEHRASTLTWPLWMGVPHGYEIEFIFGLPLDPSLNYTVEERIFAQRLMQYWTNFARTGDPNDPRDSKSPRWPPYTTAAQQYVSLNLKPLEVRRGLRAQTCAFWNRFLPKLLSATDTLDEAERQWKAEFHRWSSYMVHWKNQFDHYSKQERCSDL

For data set [1], the system named is Mus musculus. The data set is described as follows: Compound was evaluated for reversal of scopolamine-induced memory impairment in mice when administered subcutaneously (1-10 mg/kg). It counts as functional.
Data set [2] is described as follows: Acute toxicity in mice when administered subcutaneously. As to conditions: mouse, in vivo, sc.
Data set [3] relates to Mus musculus. Briefly: Compound was evaluated for reversal of scopolamine-induced memory impairment in mice when administered subcutaneously; Not active (0.16-5 mg/kg). The format is functional.
Data set [4] has as its system Mus musculus. Briefly: Compound was evaluated for reversal of scopolamine-induced memory impairment in mice when administered subcutaneously; Not active (1-10 mg/kg). It counts as functional.
Data set [5] concerns Mus musculus. Briefly: Compound was evaluated for reversal of scopolamine-induced memory impairment in mice when administered subcutaneously. The format is functional.
The test system of data set [6] is Mus musculus. The data set is described as follows: Compound was evaluated for reversal of scopolamine-induced memory impairment in mice when administered subcutaneously (0.31 - 5 mg/kg). It counts as functional. As to conditions: route subcutaneous.

Description for Acetylcholinesterase: Inhibition of acetylcholinesterase

In the case of `Nc1c2c(nc3ccccc13)CC[C@H](O)[C@H]2O`, the IC50 (as a rule, the concentration that gives 50% inhibition) against Acetylcholinesterase is over 100 µM.
Turning to `Nc1c2c(nc3ccccc13)C[C@H](O)C[C@H]2O`, the Dose in the data set on Mus musculus [1] amounted to 1 mg/kg. Moreover, the LD50 (in general, the dose expected to kill half of the subjects tested) in data set [2] is over 80 mg/kg. On Acetylcholinesterase, this compound yielded an IC50 of 14.7 µM.
Turning to `Nc1c2c(nc3ccccc13)CC[C@H](O)[C@@H]2O`, the IC50 against Acetylcholinesterase was over 100 µM.
Regarding `Nc1c2c(nc3cc(O)ccc13)CCCC2O` (centres undefined), the Dose in the data set on Mus musculus [3] is 0.16 mg/kg. Also, the LD50 in data set [2] was over 80 mg/kg. Also, half-maximal inhibition against Acetylcholinesterase (IC50) was put at 64.4 µM.
Regarding `Nc1c2c(nc3c(O)cccc13)CCCC2O` (centres undefined), in data set [2], the LD50 was over 80 mg/kg. In the data set on Mus musculus [4], the Dose is 1 mg/kg. At Acetylcholinesterase, this compound displayed an IC50 of 25.1 µM.
As for `Nc1c2c(nc3ccccc13)[C@H](O)CC[C@@H]2O`, the LD50 in data set [2] is over 80 mg/kg. On Acetylcholinesterase, this compound had an IC50 of 4.6 µM. Further, in the data set on Mus musculus [5], the Dose came out at 3 mg/kg.
For the compound `Nc1c2c(nc3ccc(O)cc13)CCCC2O` (centres undefined), the Dose in the data set on Mus musculus [3] was 0.16 mg/kg. Moreover, the LD50 in data set [2] is over 80 mg/kg. At Acetylcholinesterase, this compound came in with an IC50 of 10.6 µM.
With `Nc1c2c(nc3ccccc13)[C@H](O)CC[C@H]2O`, the LD50 in data set [2] is over 80 mg/kg. Also, the DOSE entry in the data set on Mus musculus [4] is “inactive”. For the same compound, the IC50 against Acetylcholinesterase worked out at 62.1 µM.
In the case of `Nc1c2c(nc3ccccc13)C[C@H](O)C[C@@H]2O`, the Dose with Mus musculus [1] was determined as 1 mg/kg. Further, the LD50 in data set [2] was over 80 mg/kg. Further, on Acetylcholinesterase, the IC50 amounted to 5.4 µM.
In data set [2], `Nc1c2c(nc3ccccc13)CCCC2O` (centres undefined) [VELNACRINE] displayed an LD50 of over 80 mg/kg. Further, the midpoint of inhibition at Acetylcholinesterase, the IC50, lay at 1.3 µM. Moreover, the Dose in the data set on Mus musculus [6] came to 0.31 mg/kg.
Regarding `Nc1c2c(nc3cccc(O)c13)CCCC2O` (centres undefined), in data set [2], the LD50 is over 80 mg/kg. In addition, in the data set with Mus musculus [4], the Dose was determined as 1 mg/kg. Half-maximal inhibition against Acetylcholinesterase (IC50) required 27.4 µM.
